Results reported in patent US9115086B2, “Therapeutic compositions and related methods of use” (AGIOS PHARMACEUTICALS, INC., priority 2009, dated 2015).

Molecular target: T1, PKM2 (Homo sapiens, UniProt P14618)
T1 construct: PKM2 stock enzyme solution was diluted in Reaction Buffer
Assay: PKM2 Assay (activation, LDH-coupled NADH absorbance at 340 nm)
Format: biochemical
Settings: activation of PKM2
Description: • PKM2 stock enzyme solution was diluted in Reaction Buffer • 2 μL of compound was added into each well first, and then 180 μL of the Reaction Mix was added. • Reaction mixture with compound (without ADP) were incubated for 30 minutes at 4° C. • Plates were re-equilibrated to room temperature prior to adding 20 μL ADP to initiate the reaction. • Reaction progress was measured as changes in absorbance at 340 nm wavelength at room temperature (25° C.) Reaction Mix: PKM2 (50 ng/well), ADP (0.7 mM), PEP (0.15 mM), NADH (180 μM), LDH (2 units) in Reaction Buffer Reaction Buffer: 100 mM KCl, 50 mM Tris pH 7.5, 5 mM MgCl2, 1 mM DTT, 0.03% BSA.

T1 sequence (P14618 whole entry): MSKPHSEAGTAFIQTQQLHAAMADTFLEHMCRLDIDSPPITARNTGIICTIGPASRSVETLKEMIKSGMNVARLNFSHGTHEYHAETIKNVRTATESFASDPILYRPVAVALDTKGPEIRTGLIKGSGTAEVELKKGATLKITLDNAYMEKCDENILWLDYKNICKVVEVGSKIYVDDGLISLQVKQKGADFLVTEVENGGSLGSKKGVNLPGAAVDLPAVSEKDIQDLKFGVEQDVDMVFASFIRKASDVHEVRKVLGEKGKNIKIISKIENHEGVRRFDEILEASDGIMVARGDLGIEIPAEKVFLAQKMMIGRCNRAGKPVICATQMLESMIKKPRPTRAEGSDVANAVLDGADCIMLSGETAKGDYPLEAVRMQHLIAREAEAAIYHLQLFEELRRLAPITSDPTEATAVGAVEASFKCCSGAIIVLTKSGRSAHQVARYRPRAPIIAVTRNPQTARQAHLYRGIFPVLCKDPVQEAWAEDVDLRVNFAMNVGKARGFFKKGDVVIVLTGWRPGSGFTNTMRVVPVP

SMILES	EC50
O=C(COc1ccc(-n2cnnn2)cc1)N1CCN(S(=O)(=O)c2ccc3ccccc3c2)CC1	< 10 µM
O=C(COc1ccccc1)N1CCN(S(=O)(=O)c2ccc3ccccc3c2)CC1	< 10 µM
Cc1ccc(OCC(=O)N2CCN(S(=O)(=O)c3ccc4ccccc4c3)CC2)cc1	< 10 µM
COC(=O)c1ccc(OCC(=O)N2CCN(S(=O)(=O)c3ccc4ccccc4c3)CC2)cc1	< 10 µM
CC(C)(C)OCC(=O)N1CCN(S(=O)(=O)c2ccc3sc(=O)sc3c2)CC1	10 to 100 µM
O=C(C1CCCCC1)N1CCN(S(=O)(=O)c2ccc3ccccc3c2)CC1	< 10 µM
O=C(C1CCCCC1)N1CCN(S(=O)(=O)c2cccc(C(F)(F)F)c2)CC1	< 10 µM
O=C(Cc1ccc(C(F)(F)F)cc1)N1CCN(S(=O)(=O)c2cc(Cl)cc(Cl)c2)CC1	10 to 100 µM
O=C(OCc1ccccc1)N1CCN(S(=O)(=O)c2ccccc2)CC1	< 10 µM
O=C(COc1ccccc1)N1CCN(S(=O)(=O)c2ccccc2)CC1	< 10 µM
O=C(COc1ccc(-n2cnnn2)cc1)N1CCN(S(=O)(=O)c2c(F)cccc2F)CC1	< 10 µM
COc1ccc(Cl)cc1S(=O)(=O)N1CCN(C(=O)COc2ccc(-n3cnnn3)cc2)CC1	10 to 100 µM
O=C(COc1ccc(-n2cnnn2)cc1)N1CCN(S(=O)(=O)c2ccc(F)cc2)CC1	< 10 µM
O=C(COc1ccc(-n2cnnn2)cc1)N1CCN(S(=O)(=O)c2cccc3ccccc23)CC1	< 10 µM
O=C(COc1ccc(-n2cnnn2)cc1)N1CCN(S(=O)(=O)c2cccc3cccnc23)CC1	10 to 100 µM
O=C(COCc1ccccc1)N1CCN(S(=O)(=O)c2ccc3ccccc3c2)CC1	< 10 µM
O=C(C1CC1c1ccc(C(F)(F)F)cc1)N1CCN(S(=O)(=O)c2ccc3ccccc3c2)CC1 (stereo not drawn)	< 10 µM
O=C(C1CC1c1ccc(C(F)(F)F)cc1)N1CCN(S(=O)(=O)c2ccc3c(c2)OCCO3)CC1 (stereo not drawn)	< 10 µM
O=C(CC1CC1)N1CCN(S(=O)(=O)c2ccc3ccccc3c2)CC1	< 10 µM
O=C(COc1ccccc1)N1CCN(S(=O)(=O)c2ccc(F)cc2)CC1	< 10 µM
O=C(OCc1cccnc1)N1CCN(S(=O)(=O)c2ccc3ccccc3c2)CC1	< 10 µM
Cc1cc(C)cc(OCC(=O)N2CCN(S(=O)(=O)c3ccc4ccccc4c3)CC2)c1	< 10 µM
COc1ccc(OCC(=O)N2CCN(S(=O)(=O)c3ccc4ccccc4c3)CC2)cc1	< 10 µM
O=C(COc1ccccc1)N1CCN(S(=O)(=O)c2cccc3ccccc23)CC1	< 10 µM
O=C(COc1ccc(C(F)(F)F)cc1)N1CCN(S(=O)(=O)c2ccc3c(c2)OCCO3)CC1	> 100 µM
O=C(COc1ccccc1)N1CCN(S(=O)(=O)c2cccc3cccnc23)CC1	< 10 µM
O=C(Cc1ccc(C(F)(F)F)cc1)N1CCN(S(=O)(=O)c2cccc3ccccc23)CC1	< 10 µM

Other lines, results leading:

EC50	SMILES
10 to 100 µM	O=C(COc1ccc(-n2cnnn2)cc1)N1CCN(S(=O)(=O)c2cccn2-c2ncc(C(F)(F)F)cc2Cl)CC1
< 10 µM	O=C(OCc1ccccc1)N1CCN(S(=O)(=O)c2ccc3ccccc3c2)CC1
> 100 µM	O=C(Cc1ccc(C(F)(F)F)cc1)N1CCN(S(=O)(=O)c2cc(C(F)(F)F)cc(C(F)(F)F)c2)CC1
< 10 µM	O=C(CCc1ccccc1)N1CCN(S(=O)(=O)c2ccc3ccccc3c2)CC1
< 10 µM	O=C(CCc1ccc(C(F)(F)F)cc1)N1CCN(S(=O)(=O)c2ccc3ccccc3c2)CC1
< 10 µM	O=C(COc1ccc(-n2cnnn2)cc1)N1CCN(S(=O)(=O)c2ccccc2)CC1
< 10 µM	Cc1ccc(SCC(=O)N2CCN(S(=O)(=O)c3ccc4ccccc4c3)CC2)cc1
< 10 µM	O=C(CSc1ccc(Cl)cc1Cl)N1CCN(S(=O)(=O)c2ccc3ccccc3c2)CC1
< 10 µM	O=C(CSc1ccc(F)cc1)N1CCN(S(=O)(=O)c2ccc3ccccc3c2)CC1
< 10 µM	O=C(C1CC1c1ccc(C(F)(F)F)cc1)N1CCN(S(=O)(=O)c2cc(C3CC3)cc(C(F)(F)F)c2)CC1 (stereo not drawn)
< 10 µM	O=C(Cc1ccc(C(F)(F)F)cc1)N1CCN(S(=O)(=O)c2ccc3ccccc3c2)CC1
< 10 µM	O=C(COc1cccnc1)N1CCN(S(=O)(=O)c2ccc3ccccc3c2)CC1
< 10 µM	O=C(CNc1ccccc1)N1CCN(S(=O)(=O)c2ccc3ccccc3c2)CC1
10 to 100 µM	CN1C(=O)COc2ccc(S(=O)(=O)N3CCN(C(=O)COc4ccccc4)CC3)cc21
10 to 100 µM	CN1C(=O)C(=O)c2cc(S(=O)(=O)N3CCN(C(=O)COc4ccccc4)CC3)ccc21
